Reference: patent US20240391923A1, “METHIONINE ADENOSYLTRANSFERASE 2A INHIBITOR FOR TREATING MTAP DELETION-TYPE CANCER” (SUZHOU GENHOUSE BIO CO., LTD., priority 2022, published 2024)
Like-named read-outs stand apart in the source and are kept apart here.

Tests used:
Hut-78 cell strain = experiment: Tumor cell proliferation inhibition assay (CellTiter-Glo), Hut-78; format: cell-based; settings: Hut-78 cells, 5-day treatment
Experimental: After the HCT116-MTAP-knockout (−/−) cell strain, the HCT116-MTAP wild-type(+/+)-cell strain, the DOHH-2 cell strain, or the Hut-78 cell strain was treated with the test compound for 5 days, the ATP level was measured using a CellTiter-Glo kit of Promega to evaluate the inhibition of the test compound against the growth of the tumor cell strain.
In the present application, the HCT116-MTAP-knockout (−/−) cell strain, the HCT116-MTAP wild-type (+/+)-cell strain, the DOHH-2 cell strain, or the Hut-78 cell strain was seeded into a 96-well cell culture plate at an appropriate cell density. After 24 h, the cells were treated using the test compounds diluted 1:3 fold at the highest concentration of 10 μM for 10 gradients, and a DMSO treatment group was set up separately. The cells were cultured in a 37° C./5% CO2 incubator for 5 days.

[1] = tested on: SDMA in human colon cancer cell line HCT116; experiment: Cell symmetric dimethylarginine (SDMA) test, In-cell Western, HCT116 (MTAP wild-type); format: cell-based; settings: Homo sapiens, HCT-116, 96 h
Summary of the method: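 SDMA level, an indirect readout of cellular MAT2A inhibition, measured by In-cell Western as background-subtracted 800/700 nm signal against DRAQ5. Cells exposed 4 days to six 1:4-diluted doses from 6 μM; inhibition relative to DMSO, IC50 from sigmoidal fit.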

[2] = tested on: HCT116-MTAP wild-type (+/+)-cell strain; experiment: Tumor cell proliferation inhibition assay (CellTiter-Glo), HCT116-MTAP wild-type (+/+); format: cell-based; settings: Homo sapiens, 120 h, HCT116-MTAP wild-type (+/+) cells, 5-day treatment
Summary of the method: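 Growth inhibition is evaluated from cellular ATP measured with CellTiter-Glo once cells have been treated for 5 days. Compounds are added 24 h after seeding as ten threefold dilutions starting at 10 μM, with a separate DMSO treatment group.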

[3] = tested on: SDMA in HCT116-MTAP-knockout cell line; experiment: Cell symmetric dimethylarginine (SDMA) test, In-cell Western, HCT116-MTAP-knockout; format: cell-based; settings: Homo sapiens, 96 h
[4] = target: MAT2A recombinant protein (Homo sapiens, UniProt P31153); experiment: MAT2A inhibitory activity (malachite green colorimetric enzyme assay); format: biochemical
Summary of the method: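 Compounds tested over 10 points, 3-fold dilutions, top final concentration 1000 nM. Enzyme reaction: MAT2A, L-methionine, ATP, room temperature, 60 min, in HEPES pH 7.5 buffer with KCl, MgCl2 and DTT; inorganic phosphate read colorimetrically (malachite green, A630). Inhibition vs log concentration fitted for IC50.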

[5] = Homo sapiens, HuT78, 120 h, IC50 score, read-out: Tumor cell 5-day relative growth inhibition (Hut-78) (nM), score
[6] = Homo sapiens, HuT78, 120 h, IC50 value, read-out: Tumor cell 5-day relative growth inhibition (Hut-78)
[7] = IC50 score class, read-out: Cell 96 h SDMA Inhibition (HCT116-MTAP+/+) (score)
[8] = read-out: Cell 96 h SDMA inhibition (HCT116-MTAP+/+)
[9] = IC50 score, read-out: Tumor cell 5-day relative growth inhibition (HCT116-MTAP+/+) (nM), score
[10] = IC50 value, read-out: Tumor cell 5-day relative growth inhibition (HCT116-MTAP+/+)
[11] = IC50 score class, read-out: Cell 96 h SDMA Inhibition (HCT116-MTAP−/−) (score)
[12] = read-out: Cell 96 h SDMA Inhibition (HCT116-MTAP−/−)
[13] = IC50 score class, read-out: MAT2A Inhibition (score)

MAT2A recombinant protein, sequence (P31153 whole entry): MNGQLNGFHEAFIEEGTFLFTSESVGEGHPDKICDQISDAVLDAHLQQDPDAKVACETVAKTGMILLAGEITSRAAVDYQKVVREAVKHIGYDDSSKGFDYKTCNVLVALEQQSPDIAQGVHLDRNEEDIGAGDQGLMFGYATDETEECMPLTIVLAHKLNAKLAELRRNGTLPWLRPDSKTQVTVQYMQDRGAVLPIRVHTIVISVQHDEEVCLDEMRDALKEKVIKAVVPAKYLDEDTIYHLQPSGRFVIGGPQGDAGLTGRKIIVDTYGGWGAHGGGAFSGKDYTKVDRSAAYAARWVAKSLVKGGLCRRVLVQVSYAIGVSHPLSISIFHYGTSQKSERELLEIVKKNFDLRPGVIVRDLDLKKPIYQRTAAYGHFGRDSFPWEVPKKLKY

| Compound | IC50 (Hut-78 cell strain; [5]) | IC50 (Hut-78 cell strain; [6]) | IC50 [1, 7] | IC50 [1, 8] | IC50 [2, 9] | IC50 [2, 10] | IC50 [3, 11] | IC50 [3, 12] | IC50 [4, 13] | IC50 ([4]; read-out: MAT2A Inhibition) | IC50 (Hut-78 cell strain; IC50 score, read-out: Tumor cell 5-day relative growth inhibition (Hut-78) (nM), score) | IC50 (Hut-78 cell strain; IC50 value, read-out: Tumor cell 5-day relative growth inhibition (Hut-78)) |
| --- | --- | --- | --- | --- | --- | --- | --- | --- | --- | --- | --- | --- |
| CCn1nc2c(=O)n(-c3cccnc3)c3cc(Cl)ccc3c2c1F [Compound B33] | 500 to 2000 nM | 1100 nM | > 3000 nM | 4880 nM | ≥ 2000 nM | > 2000 nM | 1000 to 3000 nM | 2650 nM | < 100 nM | 25.6 nM |  |  |
| NC(=O)CC1N=c2c(c3ccc(Cl)cc3n(-c3cccnc3)c2=O)=N1 (centres unmarked) [Compound B36] | ≥ 2000 nM | > 2000 nM | < 200 nM | 24.7 nM | ≥ 2000 nM | > 2000 nM | 1000 to 3000 nM | 2730 nM | < 100 nM | 55.2 nM |  |  |
| CNC(=O)CC1N=c2c(c3ccc(Cl)cc3n(-c3cccnc3)c2=O)=N1 (centres unmarked) [Compound B37] | ≥ 2000 nM | 6430 nM | 1000 to 3000 nM | 1260 nM | ≥ 2000 nM | > 2000 nM | 200 to 1000 nM | 888 nM | < 100 nM | 51.7 nM |  |  |
| Cn1cc2c(n1)c(=O)n(Cc1ccn[nH]1)c1nc(C(F)(F)F)ccc21 [Compound B123] | ≥ 2000 nM | > 2000 nM |  |  |  |  |  |  | < 100 nM | 53.7 nM |  |  |
| Cc1cc(-n2c(=O)c3nn(C)cc3c3ccc(Cl)cc32)n(C)n1 [Compound B175] | ≥ 2000 nM | 2040 nM | > 3000 nM | 6980 nM |  |  | 200 to 1000 nM | 993 nM | < 100 nM | 80.5 nM |  |  |
| COc1cc(Cl)cc2c1c1cn(C)nc1c(=O)n2-c1cccnc1 [Compound B176] | 500 to 2000 nM | 985 nM | 1000 to 3000 nM | 1320 nM |  |  | 200 to 1000 nM | 263 nM | < 100 nM | 24.6 nM |  |  |
| Cn1cc2c(n1)c(=O)n(-c1ccccc1)c1nc(C(F)(F)F)ccc21 [Compound B177] | 500 to 2000 nM | 866 nM | 200 to 1000 nM | 858 nM |  |  | 200 to 1000 nM | 300 nM | < 100 nM | 24.3 nM |  |  |
| Cc1ncccc1-n1c(=O)c2nn(C)cc2c2ccc(C(F)(F)F)nc21 [Compound B179] |  |  |  |  |  |  |  |  |  |  | ≥ 2000 nM | 7990 nM |
| Cn1cc2c(n1)c(=O)n(-c1cccc(F)c1)c1nc(C(F)(F)F)ccc21 [Compound B193] | 500 to 2000 nM | 696 nM | 1000 to 3000 nM | 2110 nM |  |  | 200 to 1000 nM | 387 nM | < 100 nM | 25 nM |  |  |
| Cn1cc2c(n1)c(=O)n(-c1ccc3[nH]cnc3c1)c1cc(Cl)ccc21 [Compound B206] | ≥ 2000 nM | > 2000 nM | 1000 to 3000 nM | 1290 nM |  |  | 1000 to 3000 nM | 1180 nM | < 100 nM | 93 nM |  |  |
| Cc1cncc(-n2c(=O)c3nn(C)cc3c3ccc(C(F)(F)F)nc32)c1 [Compound B217] | ≥ 2000 nM | 5430 nM | > 3000 nM | > 3000 nM | ≥ 2000 nM | > 2000 nM | 1000 to 3000 nM | 1820 nM |  |  |  |  |
| Cc1ccc(-n2c(=O)c3nn(C)cc3c3ccc(C(F)(F)F)nc32)cn1 [Compound B223] | 500 to 2000 nM | 1360 nM | 200 to 1000 nM | 583 nM | ≥ 2000 nM | > 2000 nM | 200 to 1000 nM | 692 nM |  |  |  |  |

Now from value to compound:

| IC50 (Hut-78 cell strain; [5]) | IC50 (Hut-78 cell strain; [6]) | IC50 [1, 7] | IC50 [1, 8] | IC50 [2, 9] | IC50 [2, 10] | IC50 [3, 11] | IC50 [3, 12] | IC50 [4, 13] | IC50 ([4]; read-out: MAT2A Inhibition) | IC50 (Hut-78 cell strain; IC50 score, read-out: Tumor cell 5-day relative growth inhibition (Hut-78) (nM), score) | IC50 (Hut-78 cell strain; IC50 value, read-out: Tumor cell 5-day relative growth inhibition (Hut-78)) | Compound |
| --- | --- | --- | --- | --- | --- | --- | --- | --- | --- | --- | --- | --- |
| < 500 nM | 21.8 nM | 200 to 1000 nM | 206 nM | 500 to 2000 nM | 1740 nM | < 200 nM | 25 nM |  |  |  |  | Cn1cc2c(n1)c(=O)n(-c1cccnc1C1CC1)c1nc(C(F)(F)F)ccc21 (single isomer, unassigned) [Compound B213] |
| < 500 nM | 206 nM | 1000 to 3000 nM | 1190 nM |  |  | 200 to 1000 nM | 267 nM | < 100 nM | 55.2 nM |  |  | Cn1cc2c(n1)c(=O)n(-c1ccnn1C)c1cc(Cl)ccc21 [Compound B58] |
| < 500 nM | 18.8 nM | > 3000 nM | > 3000 nM | 500 to 2000 nM | 621 nM | < 200 nM | 4 nM | < 100 nM | 48.2 nM |  |  | Cc1ncccc1-n1c(=O)c2[nH]ncc2c2ccc(C3CC3)nc21 [Compound B95] |
| < 500 nM | 50.4 nM | > 3000 nM | > 3000 nM | ≥ 2000 nM | > 2000 nM | < 200 nM | 48.7 nM | < 100 nM | 59.7 nM |  |  | Cc1ncccc1-n1c(=O)c2[nH]ncc2c2ccc(OC(F)(F)F)cc21 [Compound B101] |
| < 500 nM | 14.6 nM | < 200 nM | 53.9 nM |  |  | < 200 nM | 27.8 nM | < 100 nM | 54.8 nM |  |  | Cc1ncccc1-n1c(=O)c2[nH]ncc2c2ccc(Cl)cc21 [Compound B103] |
| < 500 nM | 108 nM | < 200 nM | 130 nM |  |  | < 200 nM | 47.9 nM |  |  |  |  | Cn1cc2c(n1)c(=O)n(-c1cccnc1C1CC1)c1nc(C(F)(F)F)ccc21 [Compound B183] |
| < 500 nM | 378 nM | 1000 to 3000 nM | 2450 nM |  |  | 200 to 1000 nM | 255 nM | < 100 nM | 26.9 nM |  |  | Cn1cc2c(n1)c(=O)n(-c1cccc(C#N)c1)c1nc(C(F)(F)F)ccc21 [Compound B192] |
| < 500 nM | 9.3 nM | 200 to 1000 nM | 691 nM |  |  | < 200 nM | 25.3 nM | < 100 nM | 45.1 nM |  |  | Cn1cc2c(n1)c(=O)n(-c1cccnc1Cl)c1nc(C(F)(F)F)ccc21 [Compound B196] |
| < 500 nM | 40.4 nM | 200 to 1000 nM | 634 nM |  |  | < 200 nM | 66.6 nM | < 100 nM | 51.4 nM |  |  | COc1ncccc1-n1c(=O)c2nn(C)cc2c2ccc(C(F)(F)F)nc21 [Compound B203] |
| < 500 nM | 312 nM | 1000 to 3000 nM | 1190 nM |  |  | 1000 to 3000 nM | 1850 nM | < 100 nM | 67.4 nM |  |  | O=c1c2nn(C3CCOC3)cc2c2ccc(C(F)(F)F)nc2n1-c1cccnc1 (centres unmarked) [Compound B204] |
| < 500 nM | 179 nM | 200 to 1000 nM | 495 nM |  |  | < 200 nM | 106 nM |  |  |  |  | Cn1cc2c(n1)c(=O)n(-c1cccnc1C#N)c1nc(C(F)(F)F)ccc21 [Compound B207] |
| < 500 nM | 47.7 nM | 1000 to 3000 nM | 1020 nM | 500 to 2000 nM | 1150 nM | < 200 nM | 39.1 nM | < 100 nM | 35.8 nM |  |  | Cc1ncccc1-n1c(=O)c2nn(C3CC3)cc2c2ccc(C(F)(F)F)nc21 [Compound B211] |
| < 500 nM | 245 nM | 200 to 1000 nM | 433 nM | ≥ 2000 nM | 3590 nM | < 200 nM | 134 nM | < 100 nM | 25.3 nM |  |  | Cc1[nH]nc2c(=O)n(-c3cccnc3)c3nc(C(F)(F)F)ccc3c12 [Compound B216] |
